The source of these data is patent EP4640686A1, “DEGRADER FOR DEGRADING BRD PROTEIN AND PHARMACEUTICAL COMPOSITION CONTAINING SAME” (Innocure Therapeutics, Inc., priority 2022, dated 2024).

Format in all cases: cell-based
Assay [1] concerns the target T1, BRD4-NUT (Homo sapiens, UniProt O60885+Q86Y26).
T1 construct: endogenous in cells; host or cells: RPMI2650
The experiment in a line: BRD4-NUT protein degradation by western blotting in RPMI2650 cells (24 h treatment). The following applies: RPM12650, read-out: BRD4-NUT (DC50). The method, then:
(§1) The synthesized compounds were prepared with a 10 mM or 50 mM raw material solution dissolved in DMSO [dimethyl sulfoxide], and were diluted sequentially and treated. [RPMI2650] and [SNU2972] were cultivated under specific conditions.
(§2) To evaluate the resolution of PROTAC for BRD4 expressed in cells, cells were dispensed in a concentration of 5 X 10^5 cells/well in a 6-well plate, and the sample was treated for 24 hours. […] Protein expression was normalized based on the expression value of β or GAPDH, and protein expression in each sample was measured as % based on 100% of samples treated with 0.1% DMSO vehicle. Protein expression was quantified using Image J program. Change in protein expression volume by compound treatment (DC50: concentration of compounds where 50% protein expression inhibition is achieved) was calculated using the GraphicPad Prism 8.0 software.
In general terms: A western blot detects proteins with antibodies after separation by electrophoresis.

Assay [2] relates to RPMI2650. The experiment in a line: Cancer cell antiproliferative activity / cell viability in RPMI2650 cells (72 h treatment). The method, then:
The human breast cancer cell line [MDA-MB-231] was cultured in RPMI medium with the addition of 10% fetal bovine serum, penicillin [100U/ml], and streptomycin [[…]]. The synthesized compounds were prepared with a 10 mM or 50 mM raw material solution dissolved in DMSO [dimethyl sulfoxide], and were diluted sequentially and treated. [RPMI2650] and [SNU2972] were cultivated under specific conditions.
To observe cell growth inhibition, cells were dispensed in a concentration of 5,000 cells/well in a 96-well plate, and samples prepared at various concentrations were treated for 72 hours. The IC50 value (the concentration of the compound achieving 50% cytostaticism) is the average value of the results of three independent measurements.

Assay [3] deals with BRD4 (Homo sapiens, UniProt O60885). The experiment in a line: BRD4 protein degradation by western blotting in RPMI2650 cells (24 h treatment). The following applies: RPM12650, read-out: BRD4 (DC50). Also on record: To evaluate the resolution of PROTAC for BRD4 expressed in cells; endogenous in cells; host or cells: RPMI2650. The method, then:
as §1, §2

Setting [4] is: Homo sapiens, RPMI-2650, RPM12650, read-out: Cell Viatility (IC50).
[5] abbreviates: RPM12650, read-out: Cell Viatility (IC50).

SMILES strings stand for the structures. Where two headings read alike, the source gives them in different places.

A word on the DC50: it is the concentration giving 50% degradation. By IC50 is commonly meant the concentration that inhibits the measured activity by half.

With `CC[C@@H]1c2nnc(C)n2-c2cnc(Nc3ccc(C(=O)N4CCN(CC5CCN(c6ccc(NC7CCC(=O)NC7=O)cc6F)CC5)CC4)cc3OC)nc2N1CC1CCCCC1` (stereo partly drawn) [ICT-0001518, 3-((4-(4-((4-(4-(((R)-5-(cyclohexylmethyl)-4-ethyl-1-methyl-4,5-dihydro-[1,2,4]triazolo[4,3-f]pteridine-7-yl)amino)3-methoxybenzoyl)piperazine-1-il)methyl)piperidine-1-yl)-3-fluorophenyl)amino)piperidine-2,6-dione], the DC50 in assay [1] and in assay [3] was below 100 nM each time. Further, the IC50 in assay [2] (setting [4]) fell in the range of 100 to 1000 nM.

For `CC[C@@H]1c2nnc(C)n2-c2cnc(Nc3ccc(C(=O)NC4CCN(CCCC#Cc5ccc6c(=O)n(C7CCC(=O)NC7=O)ncc6c5)CC4)cc3OC)nc2N1CC1CCCCC1` (stereo partly drawn) [ICT-0001534, 4-(((R)-5-(cyclohexylmethyl)-4-ethyl-1-methyl-4,5-dihydro-[1,2,4]triazolo[4,3-f]pteridine-7-yl)amino)N-(1-(5-(2-(2,6-dioxopiperidin-3-yl)1-oxo-1,2-dihydroptalazine-6-yl)pent-4-phosphorus-1-yl)piperidine-4-yl)-3-methoxybenzamide], the DC50 in assay [1] and in assay [3] was above 1000 nM each time. Besides, the IC50 in assay [2] (setting [4]) was above 1000 nM.

Consider `CC[C@@H]1c2nnc(C)n2-c2cnc(Nc3ccc(C(=O)N4CCO[C@@H](CN5CCN(c6ccc7c(=O)n(C8CCC(=O)NC8=O)nc(C)c7c6)CC5)C4)cc3OC)nc2N1CC1CCCCC1` (stereo partly drawn) [ICT-0001548, 3-(6-(4-(((S)-4-(4-(((R)-5-(cyclohexylmethyl)-4-ethyl-1-methyl-4,5-dihydro-[1,2,4]triazolo[4,3-f]pteridine-7-yl)amino)3-methoxybenzoyl)morpholine-2-il)methyl)piperazine-1-yl)4-methyl-1-oxopthalazine-2(1H)-yl)piperidine-2,6-dione], for which the DC50 in assay [1] and in assay [3] was below 100 nM throughout. Besides, the concentration for half-maximal inhibition (IC50) in assay [2] (setting [5]) is above 1000 nM.

For `CC[C@@H]1c2nnc(C)n2-c2cnc(Nc3ccc(C(=O)NCCOCCOCCOCCNc4cccc5cnn(C6CCC(=O)NC6=O)c(=O)c45)cc3OC)nc2N1CC1CCCCC1` (stereo partly drawn) [ICT-0001549], the DC50 in assay [1] is above 1000 nM; in assay [3] it was below 100 nM. Also, the IC50 in assay [2] (setting [4]) lay within 100 to 1000 nM.

As for `CC[C@@H]1c2nnc(C)n2-c2cnc(Nc3ccc(C(=O)N4CCC(CN5CCN(c6ccc7c(=O)n(C8CCC(=O)NC8=O)nc(C)c7c6)CC5)CC4)cc3OC)nc2N1CC1CCCCC1` (stereo partly drawn) [ICT-0001553, 3-(6-(4-(1-(4-(((R)-5-(cyclohexylmethyl)-4-ethyl-1-methyl-4,5-dihydro-[1,2,4]triazolo[4,3-f]pteridine-7-yl)amino)3-methoxybenzoyl)piperidine-4-yl)piperazine-1-yl)4-methyl-1-oxopthalazine-2(1H)-yl)piperidine-2,6-dione], the DC50 was 100 to 1000 nM in assay [1] and below 100 nM in assay [3]. Further, in assay [2] (setting [4]), the IC50 is above 1000 nM.

Take `CC[C@H]1c2nnc(C)n2-c2cnc(Nc3ccc(C(=O)N4CCN(c5ccc(NC6CCC(=O)N(C)C6=O)cc5F)CC4)c(OC)c3)nc2N1CC1CCCCC1` (stereo partly drawn) [ICT-0001554, 3-({4-[4-(4-{[(4S)-5-(cyclohexylmethyl)-4-ethyl-1-methyl-4H,5H-[1,2,4]triazolo[4,3-f]pteridine-7-yl]amino}-2-methoxybenzoyl)piperazine-1-yl]-3-fluorophenyl}amino)-1-methylpiperidine-2,6-dione]: the DC50 in assay [1] and in assay [3] was above 1000 nM throughout. The IC50 in assay [2] (setting [4]) was above 1000 nM.

With `CC[C@@H]1c2nnc(C)n2-c2cnc(Nc3ccc(C(=O)N4CCC(N5CCN(c6ccc7c(=O)n(C8CCC(=O)NC8=O)nc(C)c7c6)CC5)CC4)cc3OC)nc2N1CC1CCCCC1` (stereo partly drawn) [ICT-0001556, 3-(6-(4-(1-(4-(((R)-5-(cyclohexylmethyl)-4-ethyl-1-methyl-4,5-dihydro-[1,2,4]triazolo[4,3-f]pteridine-7-yl)amino)3-methoxybenzoyl)piperidine-4-yl)piperazine-1-yl)4-methyl-1-oxopthalazine-2(1H)-yl)piperidine-2,6-dione], the DC50 in assay [1] and in assay [3] was below 100 nM in each case. Moreover, the IC50 in assay [2] (setting [4]) was above 1000 nM.

Turning to `CC[C@@H]1c2nnc(C)n2-c2cnc(Nc3ccc(C(=O)N4CC(CN5CCN(c6ccc7c(=O)n(C8CCC(=O)NC8=O)nc(C)c7c6)CC5)C4)cc3OC)nc2N1CC1CCCCC1` (stereo partly drawn) [ICT-0001557, 3-(6-(4-((1-(4-(((R)-5-(cyclohexylmethyl)-4-ethyl-1-methyl-4,5-dihydro-[1,2,4]triazolo[4,3-f]pteridine-7-yl)amino)3-methoxybenzoyl)azetidine-3-yl)methyl)piperazine-1-yl)4-methyl-1-oxopthalazine-2(1H)-yl)piperidine-2,6-dione], the DC50 is above 1000 nM in assay [1] and below 100 nM in assay [3]. Moreover, in assay [2] (setting [4]), the IC50 is above 1000 nM.

In the case of `CC[C@@H]1c2nnc(C)n2-c2cnc(Nc3ccc(C(=O)NCCNc4cccc5cnn(C6CCC(=O)NC6=O)c(=O)c45)cc3OC)nc2N1CC1CCCCC1` (stereo partly drawn) [ICT-0001558, 4-(((R)-5-(cyclohexylmethyl)-4-ethyl-1-methyl-4,5-dihydro-[1,2,4]triazolo[4,3-f]pteridine-7-yl)amino)N-(2-((3-(2,6-dioxopiperidin-3-yl)4-oxo-3,4-dihydroptalazine-5-yl)amino)ethyl)-3-methoxybenzamide], the DC50 in assay [1] and in assay [3] was below 100 nM throughout. Besides, the IC50 in assay [2] (setting [4]) was above 1000 nM.

`CCC1c2nnc(C)n2-c2cnc(Nc3ccc(C(=O)NC4CCN(CCN5CCN(c6ccc7c(=O)n(C8CCC(=O)NC8=O)nc(C)c7c6)CC5)CC4)cc3OC)nc2N1CC1CCCCC1` [ICT-0001560, 4-{[(4S)-5-(cyclohexylmethyl)-4-ethyl-1-methyl-4H,5H-[1,2,4]triazolo[4,3-f]pteridine-7-yl]amino}-N-[1-(2-{4-[2-(2,6-dioxopiperidine-3-yl)-4-methyl-1-oxo-1,2-dihydroptalazine-6-yl]piperazine-1-yl}ethyl)piperidine-4-yl]-3-methoxybenzamide]: the DC50 in assay [1] and in assay [3] was below 100 nM throughout. The IC50 in assay [2] (setting [4]) was above 1000 nM.

With `CCC1c2nnc(C)n2-c2cnc(Nc3ccc(C(=O)NC4CCN(CCN5CCN(c6ccc(NC7CCC(=O)NC7=O)cc6F)CC5)CC4)cc3OC)nc2N1CC1CCCCC1` [ICT-0001561, 4-{[(4S)-5-(cyclohexylmethyl)-4-ethyl-1-methyl-4H,5H-[1,2,4]triazolo[4,3-f]pteridine-7-yl]amino}-N-{1-[2-(4-{4-[(2,6-dioxopiperidin-3-yl)amino]-2-fluorophenyl}piperazine-1-il)ethyl]piperidine-4-yl}-3-methoxybenzamide], the DC50 in assay [1] and in assay [3] was below 100 nM throughout. Further, in assay [2] (setting [4]), the IC50 was above 1000 nM.

`CC[C@H]1c2nnc(C)n2-c2cnc(Nc3ccc(C(=O)NC4CCN(CCC5CCN(c6ccc(NC7CCC(=O)NC7=O)cc6F)CC5)CC4)cc3OC)nc2N1CC1CCCCC1` (stereo partly drawn) [ICT-0001562, 4-{[(4S)-5-(cyclohexylmethyl)-4-ethyl-1-methyl-4H,5H-[1,2,4]triazolo[4,3-f]pteridine-7-yl]amino}-N-{1-[2-(1-{4-[(2,6-dioxopiperidin-3-yl)amino]-2-fluorophenyl}piperidine-4-yl)ethyl]piperidine-4-yl}-3-methoxybenzamide]: the DC50 in assay [1] and in assay [3] was above 1000 nM throughout. Moreover, the IC50 in assay [2] (setting [5]) was in the range of 100 to 1000 nM.

Consider `CC[C@@H]1c2nnc(C)n2-c2cnc(Nc3ccc(C(=O)NC4CCN(C(=O)CN5CCN(c6ccc7c(=O)n(C8CCC(=O)NC8=O)nc(C)c7c6)CC5)CC4)cc3OC)nc2N1CC1CCCCC1` (stereo partly drawn) [ICT-0001563], for which the DC50 in assay [1] and in assay [3] was below 100 nM in each case. Further, the IC50 in assay [2] (setting [4]) was above 1000 nM.

In the case of `CC[C@H]1c2nnc(C)n2-c2cnc(Nc3ccc(C(=O)NC4CCN(CCC5CCN(c6ccc(NC7CCC(=O)NC7=O)cc6F)CC5)CC4)cc3OC)nc2N1CC1CCCCC1` (stereo partly drawn) [ICT-0001564, 4-{[(4S)-5-(cyclohexylmethyl)-4-ethyl-1-methyl-4H,5H-[1,2,4]triazolo[4,3-f]pteridine-7-yl]amino}-N-{1-[2-(1-{4-[(2,6-dioxopiperidin-3-yl)amino]-2-fluorophenyl}piperidine-4-yl)ethyl]piperidine-4-yl}-3-methoxybenzamide], the DC50 in assay [1] is above 1000 nM; in assay [3], below 100 nM. In assay [2] (setting [5]), the 50% inhibitory concentration (IC50) was above 1000 nM.
